Measured values published in US8952024B2, “Herbicidal pyrimidone derivatives” (E I du Pont de Nemours and Company, priority 2009, dated 2015).

Columns and labels:
Format in all cases: in vivo
rice (Oryza sativa) = assay: Test B flooded paddy test; conditions: for Plant response rating, Rice: Flood (flooded paddy test), 13 to 15 days
Method in brief: (§1)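 Each compound is added to standing floodwater (3 cm above soil, maintained) in pots of 2-leaf-stage plants; greenhouse exposure lasts 13–15 d before visual comparison with controls on a 0–100 control scale.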

[1] = system: ducksalad (Heteranthera limosa); assay: Test B flooded paddy test; conditions: for Plant response rating, Ducksalad: Flood (flooded paddy test), 13 to 15 days
Method in brief: as §1

[2] = system: umbrella sedge (Cyperus difformis); assay: Test B flooded paddy test; conditions: for Plant response rating, Sedge, Umbrella: Flood (flooded paddy test), 13 to 15 days
Method in brief: as §1

[3] = system: barnyardgrass (Echinochloa crus-galli); assay: Test B flooded paddy test; conditions: for Plant response rating, Barnyardgrass: Flood (flooded paddy test), 13 to 15 days
Method in brief: as §1

[4] = system: pigweed (Amaranthus retroflexus); assay: Test A pre-/postemergence plant response
Method in brief: (§2)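 Formulated test chemicals (non-phytotoxic solvent, surfactant) were sprayed onto soil right after planting and simultaneously onto young plants at one to two leaves, 2 to 10 cm tall. Plants stayed in the greenhouse about ten days; injury was then visually scored against untreated controls, from 0 (no effect) to 100 (complete control).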

[5] = system: wheat (Triticum aestivum); assay: Test A pre-/postemergence plant response
Method in brief: as §2

corn (Zea mays) = assay: Test A pre-/postemergence plant response
Method in brief: as §2

[6] = system: giant foxtail (Setaria faberii); assay: Test A pre-/postemergence plant response
Method in brief: as §2

[7] = system: morningglory (Ipomoea spp.); assay: Test A pre-/postemergence plant response
Method in brief: as §2

[8] = system: large crabgrass (Digitaria sanguinalis); assay: Test A pre-/postemergence plant response
Method in brief: as §2

[9] = system: velvetleaf (Abutilon theophrasti); assay: Test A pre-/postemergence plant response
Method in brief: as §2

[10] = system: barnyardgrass (Echinochloa crus-galli); assay: Test A pre-/postemergence plant response
Method in brief: as §2

[11] = 250 g ai/ha, flooded paddy test, visual rating on 0 to 100 scale (0 no effect, 100 complete control) after 13 to 15 days
[12] = 31 g ai/ha, scale of 0 to 100 where 0 is no effect and 100 is complete control
[13] = 62 g ai/ha, scale 0 to 100, 0 is no effect, 100 is complete control
[14] = 125 g ai/ha, scale 0 to 100, 0 is no effect, 100 is complete control
[15] = Postemergence, 125 g ai/ha, visual injury, 0 to 100 scale (0 no effect, 100 complete control), approx. ten days
[16] = Postemergence, 500 g ai/ha, 0 to 100 scale, 0 = no effect, 100 = complete control, approx. ten days
[17] = Preemergence, 125 g ai/ha, 0 to 100 scale, 0 = no effect, 100 = complete control
[18] = Preemergence, 500 g ai/ha, visual injury, 0 to 100 scale (0 no effect, 100 complete control), approx. ten days
[19] = Flood, 31 g ai/ha, scale 0 to 100 (0 no effect, 100 complete control)
[20] = Postemergence, 125 g ai/ha, 0 to 100 scale where 0 is no effect and 100 is complete control
[21] = Postemergence, 500 g ai/ha, visual injury, 0 to 100 scale (0 no effect, 100 complete control), approx. ten days
[22] = Preemergence, 500 g ai/ha, 0 to 100 scale, 0 = no effect, 100 = complete control

## 3-cyclohexyl-5-[(2-hydroxy-6-oxo-1-cyclohexen-1-yl)carbonyl]-2-phenyl-4(3H)-pyrimidinone [Compound 128]
Rice (Oryza sativa); [11]
  Plant response rating, Flood, Rice: 25
Rice (Oryza sativa); [12]
  Plant response rating, Rice: 0
Rice (Oryza sativa); [13]
  Plant response rating, Rice: 10
Rice (Oryza sativa); [14]
  Plant response rating, Rice: 20
[1]; [11]
  Plant response rating, Flood, Ducksalad: 80
[1]; [12]
  Plant response rating, Ducksalad: 0
[1]; [13]
  Plant response rating, Ducksalad: 0
[1]; [14]
  Plant response rating, Ducksalad: 65
[2]; [11]
  Plant response rating, Flood, Sedge, Umbrella: 85
[2]; [12]
  Plant response rating, Sedge, Umbrella: 0
[2]; [13]
  Plant response rating, Sedge, Umbrella: 0
[2]; [14]
  Plant response rating, Sedge, Umbrella: 40
[3]; [11]
  Plant response rating, Flood, Barnyardgrass: 25
[3]; [12]
  Plant response rating, Barnyardgrass: 0
[3]; [13]
  Plant response rating, Barnyardgrass: 0
[3]; [14]
  Plant response rating, Barnyardgrass: 0
[4]; [15]
  Pigweed plant response rating: 90
[4]; [16]
  Plant response rating, Pigweed: 100
[4]; [17]
  Plant response rating, Pigweed: 60
[4]; [18]
  Plant response rating, Pigweed: 100
[5]; [15]
  Wheat plant response rating: 0
[5]; [16]
  Plant response rating, Wheat: 0
[5]; [17]
  Plant response rating, Wheat: 0
[5]; [18]
  Plant response rating, Wheat: 0
Corn (Zea mays); [15]
  Corn plant response rating: 0
Corn (Zea mays); [16]
  Plant response rating, Corn: 20
Corn (Zea mays); [17]
  Plant response rating, Corn: 0
Corn (Zea mays); [18]
  Plant response rating, Corn: 0
[6]; [15]
  Foxtail, Giant plant response rating: 70
[6]; [16]
  Plant response rating, Foxtail, Giant: 90
[6]; [17]
  Plant response rating, Foxtail, Giant: 10
[6]; [18]
  Plant response rating, Foxtail, Giant: 50
[7]; [15]
  Morningglory plant response rating: 90
[7]; [16]
  Plant response rating, Morningglory: 90
[7]; [17]
  Plant response rating, Morningglory: 0
[7]; [18]
  Plant response rating, Morningglory: 70
[8]; [15]
  Crabgrass, Large plant response rating: 50
[8]; [16]
  Plant response rating, Crabgrass, Large: 90
[8]; [17]
  Plant response rating, Crabgrass, Large: 20
[8]; [18]
  Plant response rating, Crabgrass, Large: 90
[9]; [15]
  Velvetleaf plant response rating: 100
[9]; [16]
  Plant response rating, Velvetleaf: 100
[9]; [17]
  Plant response rating, Velvetleaf: 60
[9]; [18]
  Plant response rating, Velvetleaf: 100
[10]; [15]
  Barnyardgrass plant response rating: 40
[10]; [16]
  Plant response rating, Barnyardgrass: 100
[10]; [17]
  Plant response rating, Barnyardgrass: 0
[10]; [18]
  Plant response rating, Barnyardgrass: 70

## O=C1CCCC(O)=C1C(=O)c1cnc(-c2cc(F)cc(F)c2)n(C2CCCCC2)c1=O [Compound 181]
Rice (Oryza sativa); [14]
  Plant response rating, Rice: 65
Rice (Oryza sativa); [19]
  Rice plant response rating: 0
[1]; [14]
  Plant response rating, Ducksalad: 90
[1]; [19]
  Ducksalad plant response rating: 85
[2]; [14]
  Plant response rating, Sedge, Umbrella: 85
[2]; [19]
  Sedge, Umbrella plant response rating: 75
[3]; [14]
  Plant response rating, Barnyardgrass: 70
[3]; [19]
  Barnyardgrass plant response rating: 0
[4]; [20]
  Plant response rating, Pigweed: 100
[4]; [21]
  Pigweed plant response rating: 100
[4]; [17]
  Plant response rating, Pigweed: 100
[4]; [22]
  Plant response rating, Pigweed: 100
[5]; [20]
  Plant response rating, Wheat: 30
[5]; [21]
  Wheat plant response rating: 60
[5]; [17]
  Plant response rating, Wheat: 0
[5]; [22]
  Plant response rating, Wheat: 20
Corn (Zea mays); [20]
  Plant response rating, Corn: 10
Corn (Zea mays); [21]
  Corn plant response rating: 50
Corn (Zea mays); [17]
  Plant response rating, Corn: 0
Corn (Zea mays); [22]
  Plant response rating, Corn: 0
[6]; [20]
  Plant response rating, Foxtail, Giant: 100
[6]; [21]
  Foxtail, Giant plant response rating: 100
[6]; [17]
  Plant response rating, Foxtail, Giant: 30
[6]; [22]
  Plant response rating, Foxtail, Giant: 80
[7]; [20]
  Plant response rating, Morningglory: 30
[7]; [21]
  Morningglory plant response rating: 100
[7]; [17]
  Plant response rating, Morningglory: 0
[7]; [22]
  Plant response rating, Morningglory: 30
[8]; [20]
  Plant response rating, Crabgrass, Large: 90
[8]; [21]
  Crabgrass, Large plant response rating: 90
[8]; [17]
  Plant response rating, Crabgrass, Large: 90
[8]; [22]
  Plant response rating, Crabgrass, Large: 100
[9]; [20]
  Plant response rating, Velvetleaf: 100
[9]; [21]
  Velvetleaf plant response rating: 100
[9]; [17]
  Plant response rating, Velvetleaf: 70
[9]; [22]
  Plant response rating, Velvetleaf: 100
[10]; [20]
  Plant response rating, Barnyardgrass: 100
[10]; [21]
  Barnyardgrass plant response rating: 100
[10]; [17]
  Plant response rating, Barnyardgrass: 20
[10]; [22]
  Plant response rating, Barnyardgrass: 100
